From PubChem BioAssay (NCI)
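1) Cells in 96-well plates. 2) Compound, 48 h, 5 concentrations. 3) Linear interpolation between surrounding doses. 4) Unreached endpoint = highest concentration. The concentration for full growth arrest is given as TGI.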

How the values were obtained:
Assay in all cases: NCI anticancer screen, dose series, 48 h
CCRF-CEM leukemia = system: CCRF-CEM leukemia
HT29 colon = system: HT29 colon
KM12 colon = system: KM12 colon
SW-620 colon = system: SW-620 colon
786-0 renal = system: 786-0 renal
U251 CNS = system: U251 CNS
TK-10 renal = system: TK-10 renal
EKVX NSCLC = system: EKVX NSCLC
SF-295 CNS = system: SF-295 CNS
RXF-631 renal = system: RXF-631 renal
DMS 114 small cell lung = system: DMS 114 small cell lung
KM20L2 colon = system: KM20L2 colon
LXFL 529 NSCLC = system: LXFL 529 NSCLC
UO-31 renal = system: UO-31 renal
HOP-62 NSCLC = system: HOP-62 NSCLC
SNB-78 CNS = system: SNB-78 CNS
COLO 205 colon = system: COLO 205 colon
RXF 393 renal = system: RXF 393 renal
XF 498 CNS = system: XF 498 CNS
HOP-92 NSCLC = system: HOP-92 NSCLC
OVCAR-8 ovarian = system: OVCAR-8 ovarian
HCC-2998 colon = system: HCC-2998 colon
SNB-75 CNS = system: SNB-75 CNS
SR leukemia = system: SR leukemia
UACC-257 melanoma = system: UACC-257 melanoma
HCT-15 colon = system: HCT-15 colon
ACHN renal = system: ACHN renal
NCI-H460 lung = system: NCI-H460 lung
SK-MEL-2 melanoma = system: SK-MEL-2 melanoma
K-562 leukemia = system: K-562 leukemia
NCI-H226 lung = system: NCI-H226 lung
LOX IMVI melanoma = system: LOX IMVI melanoma
A498 renal = system: A498 renal
UACC-62 melanoma = system: UACC-62 melanoma
SK-MEL-28 melanoma = system: SK-MEL-28 melanoma
M14 melanoma = system: M14 melanoma
M19-MEL melanoma = system: M19-MEL melanoma
HCT-116 colon = system: HCT-116 colon
SN12C renal = system: SN12C renal
A549 NSCLC = system: A549 NSCLC
OVCAR-4 ovarian = system: OVCAR-4 ovarian
HOP-18 NSCLC = system: HOP-18 NSCLC
OVCAR-3 ovarian = system: OVCAR-3 ovarian
CAKI-1 renal = system: CAKI-1 renal
MALME-3M melanoma = system: MALME-3M melanoma
HL-60(TB) leukemia = system: HL-60(TB) leukemia
SF-268 CNS = system: SF-268 CNS
OVCAR-5 ovarian = system: OVCAR-5 ovarian
MOLT-4 leukemia = system: MOLT-4 leukemia
SNB-19 CNS = system: SNB-19 CNS
RPMI-8226 leukemia = system: RPMI-8226 leukemia
NCI-H522 lung = system: NCI-H522 lung
SF-539 CNS = system: SF-539 CNS
SK-MEL-5 melanoma = system: SK-MEL-5 melanoma
NCI-H23 lung = system: NCI-H23 lung
SK-OV-3 ovarian = system: SK-OV-3 ovarian
DMS 273 small cell lung = system: DMS 273 small cell lung
IGROV1 ovarian = system: IGROV1 ovarian

Compound `N#CSCc1nc2ccc(Cl)cc2c(-c2ccccc2)[n+]1[O-]` has a TGI (CCRF-CEM leukemia) of 39.2 µM, a TGI (HT29 colon) of 35 µM and a TGI (KM12 colon) of 51.9 µM. It also gave a TGI (SW-620 colon) of 30.2 µM, a TGI (786-0 renal) of 32.1 µM and a TGI (U251 CNS) of 80.6 µM. The TGI (TK-10 renal) was greater than 100 µM, the TGI (EKVX NSCLC) was 40.9 µM and the TGI (SF-295 CNS) was greater than 100 µM. For the same compound, the TGI (RXF-631 renal) was greater than 100 µM, the TGI (DMS 114 small cell lung) was 72.5 µM and the TGI (KM20L2 colon) was 30.8 µM. For the same compound, the TGI (LXFL 529 NSCLC) was 26.8 µM, the TGI (UO-31 renal) was 32.7 µM and the TGI (HOP-62 NSCLC) was greater than 100 µM. It also gave a TGI (SNB-78 CNS) greater than 100 µM, a TGI (COLO 205 colon) greater than 100 µM and a TGI (RXF 393 renal) of 26.4 µM. The TGI (XF 498 CNS) was 33 µM, the TGI (HOP-92 NSCLC) was 34.7 µM and the TGI (OVCAR-8 ovarian) was 38.5 µM. For the same compound, the TGI (HCC-2998 colon) was 29.1 µM, the TGI (SNB-75 CNS) was 88.2 µM and the TGI (SR leukemia) was 76.1 µM. It also gave a TGI (UACC-257 melanoma) greater than 100 µM, a TGI (HCT-15 colon) of 32.5 µM and a TGI (ACHN renal) of 30.5 µM. For the same compound, the TGI (NCI-H460 lung) was greater than 100 µM, the TGI (SK-MEL-2 melanoma) was 42.3 µM and the TGI (K-562 leukemia) was 87.7 µM. The TGI (NCI-H226 lung) was 64.5 µM, the TGI (LOX IMVI melanoma) was 31.9 µM and the TGI (A498 renal) was greater than 100 µM. It also gave a TGI (UACC-62 melanoma) of 36.9 µM, a TGI (SK-MEL-28 melanoma) of 27.7 µM and a TGI (M14 melanoma) of 42.1 µM. The TGI (M19-MEL melanoma) was greater than 100 µM, the TGI (HCT-116 colon) was 39.7 µM and the TGI (SN12C renal) was 39.5 µM. For the same compound, the TGI (A549 NSCLC) was greater than 100 µM, the TGI (OVCAR-4 ovarian) was 55.2 µM and the TGI (HOP-18 NSCLC) was 33.6 µM. For the same compound, the TGI (OVCAR-3 ovarian) was 44.4 µM, the TGI (CAKI-1 renal) was 47.9 µM and the TGI (MALME-3M melanoma) was 62.5 µM. For the same compound, the TGI (HL-60(TB) leukemia) was 42.9 µM, the TGI (SF-268 CNS) was 61.7 µM and the TGI (OVCAR-5 ovarian) was 39 µM. It also gave a TGI (MOLT-4 leukemia) of 41.6 µM, a TGI (SNB-19 CNS) greater than 100 µM and a TGI (RPMI-8226 leukemia) of 54.4 µM.

Work on `COc1ccc(C2SCc3nc4ccccc4n32)cc1` (configuration not stated) yielded a TGI (CCRF-CEM leukemia) greater than 100 µM, a TGI (HT29 colon) of 7.02 µM and a TGI (SW-620 colon) greater than 100 µM. The TGI (NCI-H522 lung) was 5.42 µM, the TGI (U251 CNS) was 85.4 µM and the TGI (SF-539 CNS) was greater than 100 µM. For the same compound, the TGI (TK-10 renal) was greater than 100 µM, the TGI (EKVX NSCLC) was greater than 100 µM and the TGI (SK-MEL-5 melanoma) was 14.9 µM. It also gave a TGI (SF-295 CNS) greater than 100 µM, a TGI (RXF-631 renal) greater than 100 µM and a TGI (NCI-H23 lung) greater than 100 µM. For the same compound, the TGI (DMS 114 small cell lung) was 8.07 µM, the TGI (KM20L2 colon) was 6.25 µM and the TGI (LXFL 529 NSCLC) was greater than 100 µM. For the same compound, the TGI (UO-31 renal) was 66.5 µM, the TGI (SNB-78 CNS) was greater than 100 µM and the TGI (XF 498 CNS) was 4.13 µM. It also gave a TGI (HOP-92 NSCLC) of 8.75 µM, a TGI (OVCAR-8 ovarian) greater than 100 µM and a TGI (SNB-75 CNS) of 4.54 µM. It also gave a TGI (HCT-15 colon) greater than 100 µM, a TGI (ACHN renal) greater than 100 µM and a TGI (NCI-H460 lung) greater than 100 µM. It also gave a TGI (SK-MEL-2 melanoma) greater than 100 µM, a TGI (K-562 leukemia) greater than 100 µM and a TGI (NCI-H226 lung) greater than 100 µM. It also gave a TGI (LOX IMVI melanoma) greater than 100 µM, a TGI (A498 renal) of 65.8 µM and a TGI (UACC-62 melanoma) greater than 100 µM. For the same compound, the TGI (SK-OV-3 ovarian) was greater than 100 µM, the TGI (SK-MEL-28 melanoma) was greater than 100 µM and the TGI (M14 melanoma) was greater than 100 µM. It also gave a TGI (M19-MEL melanoma) greater than 100 µM, a TGI (SN12C renal) greater than 100 µM and a TGI (HOP-18 NSCLC) greater than 100 µM. It also gave a TGI (OVCAR-3 ovarian) greater than 100 µM, a TGI (CAKI-1 renal) greater than 100 µM and a TGI (DMS 273 small cell lung) of 53.6 µM. It also gave a TGI (MALME-3M melanoma) greater than 100 µM, a TGI (HL-60(TB) leukemia) of 5.43 µM and a TGI (SF-268 CNS) greater than 100 µM. It also gave a TGI (MOLT-4 leukemia) of 45.5 µM, a TGI (SNB-19 CNS) greater than 100 µM and a TGI (IGROV1 ovarian) greater than 100 µM. For the same compound, the TGI (RPMI-8226 leukemia) was 13.7 µM.
